Experimental data: patent US9283289B2, “Self-quenching activatable COX-2-specific multi-modal molecular probes for diagnosis of cancers, inflammation, and immune system disorders” (The Board of Trustees of the Leland Stanford Junior …, priority 2012, dated 2016)

Assays:
[1] = test system: basal cell carcinoma (BCC), squamous cell carcinoma (SCC) and melanoma tumors; assay: In vivo fluorescence imaging of skin tumors after systemic (retro-orbital) injection of the probe; design: species or system mouse
Text: Imaging agents based on the well-characterized COX-2 inhibitors can be used for the early detection of skin cancer and help define tumor margins. […] A continuing problem is the detection of small tumors that are indistinguishable over non-specific background fluorescence.
FIGS. 1A and 1B illustrate in vivo detection of Fluorocoxib accumulation in Basal Cell Carcinoma Imaging with CRi Maestro. FIG. 1A: Histology and identification of tumor cell; FIG. 1B: from lesion 3 (arrows).
However, for skin or other epithelial applications, as well as to improve on its TBR on systemic administration, it is desirable to limit the non-specific signal. To overcome this undesirable background fluorescent signal that can mask signals from smaller tumors and other sites having low-level expression of COX-2, the present disclosure provides molecular probes wherein the fluorescent COX-2-specific construct comprises a fluorescent quencher linked to the probe by a cleavable linker. Upon entry into a cell and binding of the Fluorocoxib to COX-2, the quencher can be displaced from the vicinity of the fluorophore by, for example, a cytoplasmic peptidase cleavage of the cleavable linker, allowing the generation of a detectable fluorescent signal. […]
The capability of this probe to detect early stage skin tumors that cannot be detected by visual inspection was investigated. […]

[2] = LC/MS-MS quantification in mouse blood after topical application; type: in vivo

- level in mouse blood [2]: undetectable
Substance: 5-Rox-D-indomethacin [Fluorocoxib A]
- size of small tumors visualized ([1]; genetically engineered mouse model of non-melanoma skin cancer, systemic administration, 1 mg/kg): approximately 100 μm
- fluorescence detection in tumor areas ([1]; three hours after retro-orbital injection, in vivo imaging and tissue histology): selectively detected
